According to paper PMC4407906, “Structure-Guided Engineering of Molinate Hydrolase for the Degradation of Thiocarbamate Pesticides” (PLoS ONE, 2015):
Values belong to the molecule of their own block, whether it stands above or below them.

What was measured:
molinate hydrolase [1] = target: T1, molinate hydrolase (Gulosibacter molinativorax, UniProt G2XLB0); experiment: UV spectrophotometric molinate depletion at […] nm, […] 2-mercaptoethanol; assay type: biochemical
T1 construct: gene molA; recombinant protein with a 32 amino acid purification tag
T1 sequence (G2XLB0 entry or part of it): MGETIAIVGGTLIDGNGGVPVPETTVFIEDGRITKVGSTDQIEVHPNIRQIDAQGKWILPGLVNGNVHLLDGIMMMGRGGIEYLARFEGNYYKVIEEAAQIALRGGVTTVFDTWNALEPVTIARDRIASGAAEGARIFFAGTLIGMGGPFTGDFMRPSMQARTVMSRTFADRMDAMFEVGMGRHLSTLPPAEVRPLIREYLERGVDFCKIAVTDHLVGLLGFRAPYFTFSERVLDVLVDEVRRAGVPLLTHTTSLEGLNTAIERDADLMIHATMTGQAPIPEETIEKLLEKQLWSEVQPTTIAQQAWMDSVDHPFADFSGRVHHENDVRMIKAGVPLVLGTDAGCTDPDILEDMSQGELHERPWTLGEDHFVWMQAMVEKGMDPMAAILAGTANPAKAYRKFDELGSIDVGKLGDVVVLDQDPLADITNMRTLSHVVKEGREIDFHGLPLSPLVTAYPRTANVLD

molinate hydrolase [2] = target: T1, molinate hydrolase; experiment: UV spectrophotometric molinate depletion at […] nm, […] L-cysteine; assay type: biochemical
molinate hydrolase [3] = target: T1, molinate hydrolase; experiment: HPLC assay of molinate depletion with purified recombinant enzyme; competitive inhibition fit; assay type: biochemical
[4] = target: the molecule itself; experiment: crystal structure; recombinant molinate hydrolase co-crystallised with ZnCl2 (4 or 8 mM), vapour diffusion at 20°C, sodium citrate pH 5.6-6.4, 2-propanol, PEG 4000, glycerol; monoclinic C2 with 8 monomers and orthorhombic with 4 monomers in the asymmetric unit

Molecule: OCCS [2-mercaptoethanol]
UV spectrophotometric molinate depletion at 220 nm, 3 mM 2-mercaptoethanol (molinate hydrolase [1]): other thiolated compounds, such as β-mercaptoethanol, also inhibited molinate hydrolase

Molecule: N[C@@H](CS)C(=O)O [L-cysteine]
UV spectrophotometric molinate depletion at 220 nm, 1.5 mM L-cysteine (molinate hydrolase [2]): cysteine also inhibits the enzyme activity, while serine and methionine do not

Ki (molinate hydrolase [3]): 300 µM
Molecule: CCS [ethanethiol]

B1: recombinant molinate hydrolase (enzyme, Gulosibacter molinativorax ON4T)
chain: GETIAIVGGTLIDGNGGVPVPETTVFIEDGRITKVGSTDQIEVHPNIRQIDAQGKWILPGLVNGNVHLLDGIMMMGRGGIEYLARFEGNYYKVIEEAAQIALRGGVTTVFDTWNALEPVTIARDRIASGAAEGARIFFAGTLIGMGGPFTGDFMRPSMQARTVMSRTFADRMDAMFEVGMGRHLSTLPPAEVRPLIREYLERGVDFCKIAVTDHLVGLLGFRAPYFTFSERVLDVLVDEVRRAGVPLLTHTTSLEGLNTAIERDADLMIHATMTGQAPIPEETIEKLLEKQLWSEVQPTTIAQQAWMDSVDHPFADFSGRVHHENDVRMIKAGVPLVLGTDAGCTDPDILEDMSQGELHERPWTLGEDHFVWMQAMVEKGMDPMAAILAGTANPAKAYRKFDELGSIDVGKLGDVVVLDQDPLADITNMRTLSHVVKEGREIDFHGLPLSPLVTAYPRTANVLD
notes: molinate hydrolase (MolA) from Gulosibacter molinativorax ON4T; 1984 residues expected for 4 monomers (496 each, tag included); One Zn2+ per monomer (occupancy set to 0.4) in the deposited structure; A SeMet derivative (from E. coli B834 (DE3), metal-depleted) was also solved, with the same overall structure; also called MolA; source: E. coli JM109 or B834 (DE3), vector pASKmolA, purified …
stoichiometry N [4]: 4
